According to US20260234165A1, “MACROCYCLIC COMPOUNDS, PREPARATION METHOD THEREFOR, AND USE THEREOF” (GENFLEET THERAPEUTICS (SHANGHAI) INC., priority 2004, published 2026):
Counter-ions that a name gives are not always drawn. Like-named read-outs stand apart in the source and are kept apart here.

Assays:
[1] = Assay for stability in liver microsomes; type: in vitro ADME; settings: human liver microsomes
Method: This experiment was intended to investigate the metabolic stability of the test compounds in human liver microsomes. The materials used in the experiment included 10 mM solutions of the test compounds and the control sample, human liver microsomes, and reduced nicotinamide adenine dinucleotide phosphate (NADPH) powder. In the experiment, a 100 mM potassium phosphate buffer was used as the buffer system.
The liver microsome working solution was prepared by diluting the liver microsome stock solution to 0.75 mg/mL using the 100 mM potassium phosphate buffer. Then, 5 μL of the 10 mM stock solution of the test compound was taken, and 195 μL of methanol was added. The mixture was well mixed to prepare a working solution A with a concentration of 0.25 mM.
Subsequently, the working solution A was diluted to 1.5 μM using the liver microsome working solution to prepare a compound-liver microsome mixed solution. Additionally, NADPH powder was dissolved in a 100) mM potassium phosphate buffer to prepare a 6 mM NADPH solution. The compound-liver microsome mixed solution was dispensed into a 96-well plate at 30 μL/well, with labeled time points of 0 min, 30 min, and 60 min. For 0-min samples, 180 μL of acetonitrile containing 100 ng/mL tolbutamide and 15 μL of the NADPH solution were added directly. The 96-well plate and the NADPH solution were then preheated under a 37° C. water bath for 5 min. After the preheating, 15 μL of the NADPH solution was added to each of the 30-min and 60-min sample wells. The plate was gently shaken for mixing and then incubated under the 37° C. water bath for the corresponding time. After the incubation was completed. 180 μL of acetonitrile containing 100 ng/mL tolbutamide was added to each sample well. The plate was sealed with a sealing film, shaken for 10 min (800 rpm/min), and then centrifuged for 15 min (4000 rpm). After the centrifugation, 50 μL of the supernatant was taken and added to a 96-well plate containing 150 μL of deionized water, and then the plate was sealed and shaken for 10 min (800 rpm) for uniform mixing. Subsequently sample analysis was performed using liquid chromatography-tandem mass spectrometry (LC-MS/MS).
The elimination rate constant and clearance rate of the test compound in liver microsomes were calculated using the following formulas: Remaining rate (%)=(peak area ratio of the compound to internal standard at any time point/peak area ratio of the compound to internal standard at 0 min)×100%,^4. T1/2=0.693/ke, where ke is the elimination rate constant and T1/2 is the half-life. Liver microsome intrinsic clearance rate (CLint(mic))=0.693/(T1/2× microsome protein concentration (mg/mL)). Liver intrinsic clearance rate (CLint(liver))=CLint(mic)×microsome protein-to-liver weight ratio (mg/g)×liver-to-body weight ratio (g/kg). In the formulas, CLint(mic) is the liver microsome intrinsic clearance rate, CLint(liver) is the liver intrinsic clearance rate, and CL(liver) is the liver clearance rate. For humans, the microsome protein-to-liver weight ratio was 45 mg/g, and the liver-to-body weight ratio was 20.7 g/kg.

[2] = Pharmacokinetic study in rats; type: in vivo, Sprague-Dawley (SD) rats; settings: Sprague-Dawley, rat, plasma, male SD rats
Excerpt: A total of 6 healthy adult male Sprague-Dawley (SD) rats were provided by Zhejiang Vital River Laboratory Animal Technology Co., Ltd. For each test compound, 6 healthy adult male SD rats were selected and randomly divided into 2 groups: an intravenous administration (IV) group and an intragastric administration (PO) group. The LC-MS/MS method was used to determine the drug concentrations in the plasma of rats at different time points after intravenous and intragastric administration of the test compounds. This experiment was intended to investigate the pharmacokinetic performance of the test compounds in rats and to evaluate the pharmacokinetic characteristics. Each drug used in the experiment was prepared from the test compound powder: An appropriate amount of test compound powder was weighed out, and appropriate amounts of DMSO, a 10% aqueous Solutol HS 15 solution, and a 6% aqueous HP-β-CD solution were sequentially added according to a volume ratio of 5:10:85. The mixture was vortexed and sonicated until clarification. The final concentration of the drug in the IV group was 0.5 mg/mL, and the final concentration of the drug in the PO group was 1 mg/mL; the concentrations could be adjusted according to actual needs. For the drug in the PO group of Z504, an appropriate amount of test compound powder was weighed out, and an appropriate amount of 0.5% MC+0.2% Tween 80 aqueous solution was added. The mixture was well mixed by vortexing to give a 1 mg/mL homogeneous suspension: the concentration could be adjusted according to actual needs.
All experimental rats were fasted overnight, and food intake was resumed 4 h after administration. For the rats in the IV group, the administration volume was set at 2 mL/kg, with Z554 and Z915 administered at a dose of 0.5 mg/kg and the other compounds at a dose of 1 mg/kg. For the rats in the PO group, the administration volume was 10 mL/kg and the dose was 10 mg/kg. The administration amount was adjusted according to the body weight of the rats on the day of administration. In the experiment, blood samples were collected from the rats in the IV group at multiple time points (0.0833 h, 0.25 h, 0.5 h, 1 h, 2 h, 4 h, 7 h, and 24 h) after administration, while blood samples were collected from the PO group at 0.25 h, 0.5 h, 1 h, 2 h, 4 h, 7 h, and 24 h after administration, with approximately 100 μL collected each time via the orbital blood collection method.
The blood samples were placed in centrifuge tubes containing EDTA-K2 and centrifuged at 8000 rpm for 4 min within 30 min to separate the supernatant plasma. The resulting plasma samples were stored at −20° C. for later use. For sample analysis, 20 μL of each of plasma samples and calibration standards was added to a 96-well plate, and 160 μL of acetonitrile containing 100 ng/mL tolbutamide was added. The samples were vortexed for 5 min for uniform mixing, and then centrifuged at 4000 rpm for 15 min. After the centrifugation was completed, 50 μL of supernatant was added to a 96-well plate containing 150 μL of deionized water. The plate was then sealed and shaken for uniform mixing. Sample analysis was performed by LC-MS/MS.
The sampling volume could be adjusted according to actual needs, but the final concentration should be kept unchanged.

[3] = system: p-ERK in NCI-H441 cells (KRAS G12V mutation); assay: Cell p-ERK assay (HTRF) in NCI-H441 cells; type: cell-based, human; settings: NCI-H441 cells, 3 h compound incubation, HTRF p-ERK T202/Y204, read-out: H441 p-ERK IC50
How it was run: (§1)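 In this cellular format, endogenous KRAS-mutant lines grown in RPMI-1640 plus 10% FBS received graded compound concentrations for 3 h at 37 °C. Lysates were incubated 4 h with the phospho-T202/Y204 ERK HTRF antibody pair, and percent inhibition relative to DMSO and blank wells was curve-fitted to give IC50.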

[4] = system: p-ERK in AsPC-1 cells (KRAS G12D mutation); assay: Cell p-ERK assay (HTRF) in AsPC-1 cells; type: cell-based, human; settings: AsPC-1 cells, 3 h compound incubation, HTRF p-ERK T202/Y204, read-out: AsPC-1 p-ERK IC50
How it was run: as §1

[5] = system: AsPC-1 cells (KRAS G12D mutation); assay: 3D cell proliferation assay (CellTiter Glo-3D), AsPC-1; type: cell-based, human; settings: medium with 2% FBS, read-out: AsPC-1 AP IC50
How it was run: (§2)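 Luminescent CellTiter-Glo 3D readout after 5-day compound exposure (3.16-fold series, 0.1% DMSO, 2% FBS medium) at 37°C on 800 cells/well plated the day before; IC50 from four-parameter curve of inhibition relative to DMSO and blank wells.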

NCI-H441 cells = assay: 3D cell proliferation assay (CellTiter Glo-3D), NCI-H441; type: cell-based, human; settings: medium with 2% FBS, read-out: H441 AP IC50
How it was run: as §2

[6] = Homo sapiens, ASPC1, 3D cell proliferation (CellTiter Glo-3D)
[7] = Homo sapiens, NCI-H441, 3D cell proliferation (CellTiter Glo-3D)
[8] = 3D cell proliferation (CellTiter Glo-3D)

Row | Compound | IC50 ([3]; Homo sapiens, NCI-H441, 3 h) [nM] | IC50 ([4]; Homo sapiens, ASPC1, 3 h) [nM] | IC50 [5, 6] [nM] | IC50 (NCI-H441 cells; [7]) [nM] | IC50 [3] [nM] | IC50 [4] [nM] | IC50 [5, 8] [nM] | IC50 (NCI-H441 cells; [8]) [nM] | also measured
1 | CCn1c(-c2cc(N3CCN(C)CC3)cnc2[C@H](C)OC)c2c3cc(ccc31)-c1csc(n1)C[C@H](NC(=O)[C@H]1[C@H](C)[C@@H]1C)C(=O)N1CCC[C@H](N1)C(=O)OCC(C)(C)C2 (atropisomer, axis not shown; (Ra)) [Control compound 1, (1r,2R,3S)—N-((6^3S,Z)-1^1-ethyl-(Ra)-1^2-(2-((S)-1-methoxyethyl)-5-(4-methylpiperazin-1-yl)pyridin-3-yl)-10,10-dimethyl-5,7-dioxo-6^1,6^2,6^3,6^4,6^5,6^6-hexahydro-1^1H-8-oxa-2(4,2)-thiazola-1(5,3)-indola-6(1,3)-pyridazinacycloundecaphane-4-yl)-2,3-dimethylcyclopropane-1-carboxamide, reference compound] | – | – | – | – | – | – | – | – | half-life at 1 µM ([1]; NADPH, 37° C., 0/30/60 min): 11.8 min; CLint scaled at 1 µM ([1]; liver intrinsic clearance rate): 136 mL/min/kg; clearance ([2]; IV, dose 1 mg/kg): 42.8 mL/min/kg; AUC ([2]; PO (intragastric), dose 10 mg/kg, read-out: AUC): 1220 ng·h/mL; Cmax ([2]; PO (intragastric), dose 10 mg/kg, read-out: Cmax): 365 ng/mL
2 | CCn1c(-c2cc(C#CCN3CCOC4(CC4)C3)cnc2[C@H](C)OC)c2c3cc(ccc31)-c1csc(n1)C[C@H](NC(=O)[C@H]1[C@H](C)[C@@H]1C)C(=O)N1CCC[C@H](N1)C(=O)OCC(C)(C)C2 [Compound Z369-1, (1r,2R,3S)—N-((6^3S,4S,Z)-1^2-(5-(3-(4-oxa-7-azaspiro[2.5]octan-7-yl)prop-1-yn-1-yl)-2-((S)-1-methoxyethyl)pyridin-3-yl)-1^1-ethyl-10,10-dimethyl-5,7-dioxo-6^1,6^2,6^3,6^4,6^5,6^6-hexahydro-1^1H-8-oxa-2(4,2)-thiazola-1(5,3)-indola-6(1,3)-pyridazinacycloundecaphane-4-yl)-2,3-dimethylcyclopropane-1-carboxamide formate] | 0.16 | 0.12 | 0.14 | 0.21 | – | – | – | – | –
3 | CCn1c(-c2cc(C#CC(C)(C)N3CCC(OC)CC3)cnc2[C@H](C)OC)c2c3cc(ccc31)-c1csc(n1)C[C@H](NC(=O)[C@H]1[C@H](C)[C@@H]1C)C(=O)N1CCC[C@H](N1)C(=O)OCC(C)(C)C2 (atropisomer, axis not shown; (Ra)) [Compound Z628-1, (1r,2R,3S)—N-((6^3S,4S,Z)-1^1-ethyl-(Ra)-1^2-(2-((S)-1-methoxyethyl)-5-(3-(4-methoxypiperidin-1-yl)-3-methylbut-1-yn-1-yl)pyridin-3-yl)-10,10-dimethyl-5,7-dioxo-6^1,6^2,6^3,6^4,6^5,6^6hexahydro-1^1H-8-oxa-2(4,2)-thiazola-1(5,3)-indola-6(1,3)-pyridazinacycloundecaphane-4-yl)-2,3-dimethylcyclopropane-1-carboxamide] | – | – | – | – | 0.35 | 0.31 | 0.62 | 0.34 | –

Continued, in another order:

Row | IC50 ([3]; Homo sapiens, NCI-H441, 3 h) [nM] | IC50 ([4]; Homo sapiens, ASPC1, 3 h) [nM] | IC50 [5, 6] [nM] | IC50 (NCI-H441 cells; [7]) [nM] | IC50 [3] [nM] | IC50 [4] [nM] | IC50 [5, 8] [nM] | IC50 (NCI-H441 cells; [8]) [nM] | Compound | also measured
4 | 1.56 | 3.35 | 4.51 | 1.58 | – | – | – | – | CCn1c(-c2cc(OCCN3CCP(C)(=O)CC3)cnc2[C@H](C)OC)c2c3cc(ccc31)-c1csc(n1)C[C@H](NC(=O)[C@H]1[C@H](C)[C@@H]1C)C(=O)N1CCC[C@H](N1)C(=O)OCC(C)(C)C2 (single isomer, unassigned) [Compound Z780] | –
5 | – | – | – | – | 0.11 | 0.32 | 0.78 | 0.21 | CCn1c(-c2cc(OCCN3CCS(=O)(=O)C(C)(C)C3)cnc2[C@H](C)OC)c2c3cc(ccc31)-c1csc(n1)C[C@H](NC(=O)[C@H]1C[C@@H]1C)C(=O)N1CCC[C@H](N1)C(=O)OCC(C)(C)C2 (atropisomer, axis not shown; (Ra)) [Compound Z665] | –
